{"source": "patent US20040198794A1", "about": "“Ondansetron forms and processes of making the same” (priority 2003, published 2004)", "format_in_all_cases": "physicochemical", "key": {"[1]": {"experiment": "Solvent-induced conversion between forms by slurrying", "source_text": "It is sensitive to a solvent-induced conversion into a form II defined below by slurrying in some polar solvents, e.g. in methanol or water, while it is inert to the same slurrying or solvent treatment in non-polar solvents. […] Form II is resistant to a solvent-inducing conversion to form I at ambient temperature."}, "[2]": {"experiment": "Storage stability of solid ondansetron forms"}, "[3]": {"experiment": "Hydration of solid ondansetron base on exposure to humidity", "source_text": "After storage of the anhydrate form at humidity exceeding 10% RH, hydrates may be formed. A stable hydrated form comprise 1.3-1.5% of water, this corresponding to approximately 0.25 molar equivalent of water (a hemi-hemihydrate). Accordingly, another ondansetron form of the present invention is an ondansetron hydrate comprising ondansetron and water wherein the amount of water relative to ondansetron is within the range of 0.23-0.27 moles, more preferably 0.24-0.26 moles, per each one mole of ondansetron. Exposure of this or the anhydrated product to enhanced humidity (70% RH) results in a product having about 3% water content which corresponds to a hemihydrate (0.5 molar equivalent of water). Exposure to extreme humidity of about 90% or more leads to a monohydrate form of about 5% water. The most useful hydrated form of ondansetron base is the hemi-hemi hydrate as this is formed under most precipitation conditions and is stable. The above forms I or II are preferably hydrates containing 1.3-1.5% of water."}, "[4]": {"experiment": "Dissolution and release of microcrystalline ondansetron", "conditions": "particle size smaller than 200 microns", "source_text": "It has been further discovered that ondansetron base having a particle size smaller than 200 microns (hereinafter “microcrystalline ondansetron”) is more suitable in making pharmaceutical formulations."}}}
{"smiles": "Cc1nccn1CC1CCc2c(c3ccccc3n2C)C1=O", "note": "(stereo not shown) [Form II]", "values": [{"measurement": "solvent-inducing conversion to form I", "setting": "[1]; ambient temperature", "result": "resistant"}, {"measurement": "form conversion during storage", "setting": "[2]; prolonged storage at 40° C./75% relative humidity (RH)", "result": "partial conversion to Form I"}, {"measurement": "stability during storage", "setting": "[2]; room temperature, stored in closed vial", "result": "stable"}]}
{"smiles": "Cc1nccn1CC1CCc2c(c3ccccc3n2C)C1=O", "note": "(stereo not shown) [ondansetron base]", "values": [{"measurement": "water content after exposure to humidity", "setting": "[3]; enhanced humidity (70% RH), corresponds to a hemihydrate", "result": "about 3%"}, {"measurement": "water content after exposure to humidity", "setting": "[3]; extreme humidity of about 90% or more, monohydrate form", "result": "about 5%"}]}
{"smiles": "Cc1nccn1CC1CCc2c(c3ccccc3n2C)C1=O", "note": "(stereo not shown) [form I]", "values": [{"measurement": "solvent-induced conversion into form II", "setting": "[1]; slurrying in some polar solvents, e.g. methanol or water", "result": "sensitive"}, {"measurement": "solvent-induced conversion into form II", "setting": "[1]; slurrying or solvent treatment in non-polar solvents", "result": "inert"}, {"measurement": "stability during storage", "setting": "[2]; storage at ambient and elevated temperatures", "result": "sufficiently stable"}]}
{"smiles": "Cc1nccn1CC1CCc2c(c3ccccc3n2C)C1=O", "note": "(stereo not shown) [microcrystalline ondansetron]", "values": [{"measurement": "dissolution in liquid medium", "setting": "[4]; making liquid compositions", "result": "dissolves more rapidly"}, {"measurement": "release from the tablet composition", "setting": "[4]", "result": "releases more rapidly"}]}
